Assay results taken from US20220202845A1, “METHODS AND COMPOSITIONS FOR TREATING CANCER” (Fred Hutchinson Cancer Research Center, priority 2018, published 2022).

How the values were obtained:
[1] = test system: DUX4 mRNA; test: DUX4 mRNA levels by RT-qPCR in differentiating MB200 FSHD2 patient-derived muscle cells; assay type: cell-based, human; conditions: varying concentrations, 24 hours, vs DMSO vehicle set to one
Description: (§1) FIG. 13A-C. CDK7 inhibitor THZ1 reduces DUX4 expression in FSHD cells and cancer cells. (A) Differentiating MB200 FSHD2 patient-derived muscle cells, (B) SuSa testicular teratocarcinoma cells, or (C) KLE endometrial adenocarcinoma cells were treated with vehicle (−, DMSO) or varying concentrations of THZ1, as indicated, for 24 hours (A) or 20 hours (B-C) and cultures analyzed for DUX4 mRNA levels by RT-qPCR. […] Data are represented as relative expression (means, with error bars indicating standard deviation across three biological replicates) with expression in the absence of inhibitor set to one. FSHD muscle cells utilize DUX4 exon 3, while SuSa cells and KLE cells use DUX4 exon 3b.
(§2) Total RNA was extracted from whole cells using the NucleoSpin RNA kit (Machery-Nagel) according to the manufacturer's instructions. Isolated RNA was treated with DNase I (Thermo Fisher Scientific), heat inactivated, and reverse transcribed into cDNA using SuperScript III (Thermo Fisher Scientific) and oligo(dT) primers (Invitrogen) following the manufacturer's protocol. Quantitative PCR was carried out on a QuantStudio 7 Flex (Applied Biosystems) using primers specific for each mRNA and iTaq SYBR Green Supermix (Bio-Rad Laboratories, Inc.). […]
(§3) Next, the cells were analyzed for DUX4 mRNA levels by RT-qPCR.

[2] = test system: DUX4 mRNA; test: DUX4 mRNA levels by RT-qPCR in SuSa testicular teratocarcinoma cells; assay type: cell-based, human; conditions: varying concentrations, 20 hours, vs DMSO vehicle set to one
Description: as §1, §2, §3

[3] = test system: DUX4 mRNA; test: DUX4 mRNA levels by RT-qPCR in KLE endometrial adenocarcinoma cells; assay type: cell-based, human; conditions: varying concentrations, 20 hours, vs DMSO vehicle set to one
Description: as §1, §2, §3

[4] = biological target: p38α (Homo sapiens, UniProt Q16539); conditions: fold selective over p38β; cited from earlier work
p38α, sequence (Q16539 whole entry): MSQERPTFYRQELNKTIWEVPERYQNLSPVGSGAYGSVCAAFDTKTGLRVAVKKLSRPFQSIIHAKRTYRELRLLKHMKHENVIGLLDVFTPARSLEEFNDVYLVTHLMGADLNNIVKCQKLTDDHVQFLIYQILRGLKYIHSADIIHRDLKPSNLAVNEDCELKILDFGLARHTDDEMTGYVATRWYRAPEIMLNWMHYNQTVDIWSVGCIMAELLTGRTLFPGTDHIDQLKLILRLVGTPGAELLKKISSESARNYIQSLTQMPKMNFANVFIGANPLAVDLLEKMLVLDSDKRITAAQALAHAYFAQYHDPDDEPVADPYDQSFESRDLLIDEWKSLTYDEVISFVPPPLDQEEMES

| SMILES | DUX4 mRNA levels (relative expression) [1] | DUX4 mRNA levels (relative expression) [2] | DUX4 mRNA levels (relative expression) [3] | Selectivity for p38α over p38β [4] |
| --- | --- | --- | --- | --- |
| CN(C)C/C=C/C(=O)Nc1ccc(C(=O)Nc2cccc(Nc3ncc(Cl)c(-c4c[nH]c5ccccc45)n3)c2)cc1 [THZ1] | inhibits DUX4 expression | inhibits DUX4 expression | inhibits DUX4 expression |  |
| NC(=O)c1ccc(N(C(N)=O)c2c(F)cccc2F)nc1-c1ccc(F)cc1F [VX-702] |  |  |  | p38α14X selective over p38β |
| O=c1ncn2nc(Sc3ccc(F)cc3F)ccc2c1-c1c(Cl)cccc1Cl [VX-745] |  |  |  | p38α22X selective over p38β |
